pKd, pKi: −log10 of the molar value. Where two headings read alike, the source gives them in different places.
Legend:
APH(3’)-Ia = biological target: APH(3’)-Ia; set-up: method as in PMID 23758273; conditions: read-out: Inhibition constant; cited from earlier work
[1] = test system: resistant hyper-permeable efflux mutant of E. coli (ΔtolC ΔbamB); conditions: cited from earlier work
APH(2”)-IVa [2] = biological target: T1, APH(2”)-IVa (Enterococcus casseliflavus, UniProt O68183); assay: biochemical; assay type: binding; conditions: read-out: ΔTm (°C)
Experimental: Thermal shift assays were performed using an RTqPCR machine Mx3005P (Stratagene) in 96-well plates (Thermo-Fast low Profile, ThermoScientific) by mixing the protein at 5 µM, SYPRO® Orange (Sigma Aldrich) at […], and fragments at 500 µM. Fluorescence was followed with Cy3 and SYAL filters. Denaturation curves were collected using MxPro-Mx3005P v4.10 software and analyzed using the implemented version of wTSA-CRAFT[36].

APH(2”)-IVa [3] = biological target: T1, APH(2”)-IVa
APH(2”)-IVa [4] = biological target: T1, APH(2”)-IVa; assay: biochemical; conditions: Ki (µM), inhibition constant, ATP-competitive; 0-2 mM MgATP, 100 µM kanamycin A, global fitting
APH(2”)-IVa [5] = biological target: T1, APH(2”)-IVa; assay: biochemical; assay type: binding
Experimental: ITC experiments were performed on three different machines: a MicroCal VP-ITC (GE Healthcare), a MicroCal PEAQ-ITC (Malvern), or a MicroCal iTC200 (Malvern). The architecture and principles are similar for the three different systems. The experiments were carried out in Buffer HEPES at 25 °C. Titrations consisted of twenty injections of 1.5 µL inhibitors, every 120 seconds, into the measuring cell using the injection syringe rotating at 750 rpm. The data were analyzed using the MicroCal PEAQ-ITC software (v. 1.52, Malvern) using the single-site binding model to fit the raw data. The standard error of the Kd value was determined from measurements made on distinct samples (n indicated in the text).

12 different APHs = biological target: 12 different APHs; set-up: method as in PMID 23758273; conditions: all the APHs tested; cited from earlier work
APH(3’)-IIIa [6] = test system: APH(3’)-IIIa; set-up: method as in PMID 11514228; conditions: cited from earlier work
APH(2”)-Ib = test system: APH(2”)-Ib; set-up: method as in PMID 11514228; conditions: at 1 mM; cited from earlier work
APH(3’)-IIa = conditions: read-out: Michaelis constant (Km) for ATP; cited from earlier work
APH(2”)-IVa [7] = test system: APH(2”)-IVa; set-up: method as in PMID 19158087; conditions: read-out: Michaelis constant (Km) for ATP; cited from earlier work
APH(3’)-IIb = test system: APH(3’)-IIb; set-up: method as in earlier work; conditions: read-out: Michaelis constant (Km) for ATP; cited from earlier work
APH(3’)-IIIa [8] = biological target: APH(3’)-IIIa; set-up: method as in PMID 21573013, PMID 15388945; conditions: read-out: Inhibition constant; cited from earlier work
APH(9)-Ia = biological target: APH(9)-Ia; set-up: method as in PMID 21573013, PMID 15388945; conditions: read-out: Inhibition constant; cited from earlier work

T1 sequence (O68183 1-301): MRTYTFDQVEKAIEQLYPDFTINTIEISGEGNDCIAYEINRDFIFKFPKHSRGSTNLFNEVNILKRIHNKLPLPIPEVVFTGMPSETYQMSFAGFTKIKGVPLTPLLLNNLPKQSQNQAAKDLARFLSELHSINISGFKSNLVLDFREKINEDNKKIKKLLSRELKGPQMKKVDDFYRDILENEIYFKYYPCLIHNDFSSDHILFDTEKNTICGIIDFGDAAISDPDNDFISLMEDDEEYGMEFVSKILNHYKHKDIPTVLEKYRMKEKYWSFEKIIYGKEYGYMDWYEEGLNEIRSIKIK

## CC(C)(C)n1nc(-c2cccc3ccccc23)c2c(N)ncnc21 [Compound 1-NA-PP1]
APH(3’)-Ia
  pKi: 4.67
[1]
  Rescue activity of kanamycin A: demonstrated rescue activity of kanamycin A

## O=C(O)c1cc(NC2CC2)ncc1Cl [Compound 36]
APH(2”)-IVa [2]
  ΔTm at 500 µM: 2.69 °C
APH(2”)-IVa [3]; [36] = 20 µM, [MgATP] 0.1 mM
  kss: 0.130 s⁻¹
APH(2”)-IVa [3]; [36] = 20 µM, [MgATP] 0.2 mM
  kss: 0.200 s⁻¹
APH(2”)-IVa [3]; [36] = 20 µM, [MgATP] 0.3 mM
  kss: 0.240 s⁻¹
APH(2”)-IVa [3]; [36] = 20 µM, [MgATP] 0.4 mM
  kss: 0.278 s⁻¹
APH(2”)-IVa [3]; [36] = 50 µM, [MgATP] 0.1 mM
  kss: 0.097 s⁻¹
APH(2”)-IVa [3]; [36] = 50 µM, [MgATP] 0.2 mM
  kss: 0.138 s⁻¹
APH(2”)-IVa [3]; [36] = 50 µM, [MgATP] 0.3 mM
  kss: 0.175 s⁻¹
APH(2”)-IVa [3]; [36] = 50 µM, [MgATP] 0.4 mM
  kss: 0.207 s⁻¹
APH(2”)-IVa [3]; [36] = 100 µM, [MgATP] 0.1 mM
  kss: 0.067 s⁻¹
APH(2”)-IVa [3]; [36] = 100 µM, [MgATP] 0.2 mM
  kss: 0.101 s⁻¹
APH(2”)-IVa [3]; [36] = 100 µM, [MgATP] 0.3 mM
  kss: 0.133 s⁻¹
APH(2”)-IVa [3]; [36] = 100 µM, [MgATP] 0.4 mM
  kss: 0.156 s⁻¹
APH(2”)-IVa [4]
  Ki: 18.2 µM
APH(2”)-IVa [5]
  pKd: 4.42

## O=c1c(O)c(-c2ccc(O)c(O)c2)oc2cc(O)cc(O)c12 [Quercetin, quercetin]
12 different APHs
  pKi: 4.60 to 7.15

## CC(C)(C)n1nc(Cc2cccc3ccccc23)c2c(N)ncnc21 [Compound 1-NM-PP1]
APH(3’)-Ia
  pKi: 4.46
[1]
  Rescue activity of kanamycin A: demonstrated rescue activity of kanamycin A

## COC[C@H]1OC(=O)c2coc3c2[C@@]1(C)C1=C(C3=O)[C@@H]2CCC(=O)[C@@]2(C)C[C@H]1OC(C)=O [Wortmannin, wortmannin]
APH(3’)-IIIa [6]
  Inhibition: did not affect
APH(2”)-Ib
  Inhibition: 90%

## Nc1ncnc2c1ncn2[C@@H]1O[C@H](COP(=O)(O)OP(=O)(O)OP(=O)(O)O)[C@@H](O)[C@H]1O [ATP, adenosine 5’-triphosphate]
APH(3’)-IIa
  Km: 45 µM
APH(2”)-IVa [7]
  Km: 101 µM
APH(3’)-IIb
  Km: 24 µM

## NCCNS(=O)(=O)c1ccc(Cl)c2ccncc12 [CKI-7]
APH(3’)-IIIa [8]
  pKi: 4.18
APH(9)-Ia
  pKi: 3.80
